Among the data in US12187723B2 (BRISTOL-MYERS SQUIBB COMPANY, priority 2019, dated 2025) are IC50 values, retold here.

For experiment [1], the target named is T1, human TLR9 (Homo sapiens, UniProt Q9NR96).
T1 construct: host or cells: HEK-Blue cells
T1 sequence (Q9NR96 26-1032): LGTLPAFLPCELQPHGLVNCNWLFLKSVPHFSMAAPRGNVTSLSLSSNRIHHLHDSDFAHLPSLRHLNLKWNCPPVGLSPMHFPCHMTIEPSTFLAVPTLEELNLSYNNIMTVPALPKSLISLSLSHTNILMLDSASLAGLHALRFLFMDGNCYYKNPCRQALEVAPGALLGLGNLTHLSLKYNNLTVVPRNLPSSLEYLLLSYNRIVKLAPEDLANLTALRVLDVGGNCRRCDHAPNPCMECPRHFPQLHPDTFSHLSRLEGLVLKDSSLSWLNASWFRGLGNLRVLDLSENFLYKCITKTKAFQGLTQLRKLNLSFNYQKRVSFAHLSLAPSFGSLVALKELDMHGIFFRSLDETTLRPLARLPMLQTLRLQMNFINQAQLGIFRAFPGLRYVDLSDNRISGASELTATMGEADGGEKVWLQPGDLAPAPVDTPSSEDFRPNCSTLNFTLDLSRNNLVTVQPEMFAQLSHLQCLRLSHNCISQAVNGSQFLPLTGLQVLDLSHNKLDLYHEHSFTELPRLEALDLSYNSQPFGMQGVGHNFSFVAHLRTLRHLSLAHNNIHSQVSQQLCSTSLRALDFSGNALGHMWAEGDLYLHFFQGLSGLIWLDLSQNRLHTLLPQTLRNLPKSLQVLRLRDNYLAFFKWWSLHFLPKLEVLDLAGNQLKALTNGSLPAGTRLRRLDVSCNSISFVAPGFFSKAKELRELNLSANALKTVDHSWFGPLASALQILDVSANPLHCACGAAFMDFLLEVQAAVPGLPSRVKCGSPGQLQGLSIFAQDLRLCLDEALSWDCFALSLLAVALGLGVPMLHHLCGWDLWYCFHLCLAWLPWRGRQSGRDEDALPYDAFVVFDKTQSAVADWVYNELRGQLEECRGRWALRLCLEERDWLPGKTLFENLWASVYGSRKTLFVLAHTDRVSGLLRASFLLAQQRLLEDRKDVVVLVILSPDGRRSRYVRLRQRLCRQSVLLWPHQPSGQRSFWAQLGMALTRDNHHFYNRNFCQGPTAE
Description: TLR9 inhibition reporter assay (HEK-Blue SEAP). It is filed as cell-based. As to conditions: HEK-Blue cells overexpressing human TLR9, ODN2006 5 nM, 22 hour incubation. The method, boiled down: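 Human TLR7/8/9 HEK-Blue reporter lines; dose range 0.05 nM–50 μM; 30 min RT preincubation; stimulus gardiquimod 7.5 μM / R848 15.9 μM / ODN2006 5 nM respectively; 22 h, 37 °C; SEAP detected colorimetrically.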

In experiment [2] the target is T2, human TLR7 (Homo sapiens, UniProt Q9NYK1).
T2 construct: host or cells: HEK-Blue cells
T2 sequence (Q9NYK1 27-1049): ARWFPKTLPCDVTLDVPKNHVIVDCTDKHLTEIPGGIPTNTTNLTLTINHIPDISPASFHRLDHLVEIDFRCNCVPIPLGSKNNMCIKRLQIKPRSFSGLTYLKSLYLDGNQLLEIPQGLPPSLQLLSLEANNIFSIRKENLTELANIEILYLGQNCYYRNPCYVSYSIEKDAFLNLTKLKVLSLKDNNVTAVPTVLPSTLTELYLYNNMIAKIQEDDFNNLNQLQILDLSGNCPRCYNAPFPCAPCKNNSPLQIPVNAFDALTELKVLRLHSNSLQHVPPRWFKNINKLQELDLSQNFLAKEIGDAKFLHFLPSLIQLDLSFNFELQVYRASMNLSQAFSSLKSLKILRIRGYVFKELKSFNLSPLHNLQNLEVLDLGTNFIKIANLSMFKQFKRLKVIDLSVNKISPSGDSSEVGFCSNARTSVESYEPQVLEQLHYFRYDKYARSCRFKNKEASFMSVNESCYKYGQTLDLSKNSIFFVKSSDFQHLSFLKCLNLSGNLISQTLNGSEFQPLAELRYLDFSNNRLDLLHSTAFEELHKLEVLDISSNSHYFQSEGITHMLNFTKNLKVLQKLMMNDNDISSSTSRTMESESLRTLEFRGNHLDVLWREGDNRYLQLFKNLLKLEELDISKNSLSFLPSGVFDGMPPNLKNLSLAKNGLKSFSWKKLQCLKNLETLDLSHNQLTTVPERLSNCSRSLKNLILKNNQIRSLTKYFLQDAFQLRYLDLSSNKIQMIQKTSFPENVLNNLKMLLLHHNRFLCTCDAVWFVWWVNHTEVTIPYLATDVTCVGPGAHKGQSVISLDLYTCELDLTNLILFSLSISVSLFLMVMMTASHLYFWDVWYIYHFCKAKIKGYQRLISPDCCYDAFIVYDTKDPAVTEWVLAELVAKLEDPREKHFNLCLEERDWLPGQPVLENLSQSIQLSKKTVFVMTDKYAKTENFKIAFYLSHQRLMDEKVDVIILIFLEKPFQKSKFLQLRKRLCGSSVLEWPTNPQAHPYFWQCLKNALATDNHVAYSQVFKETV
Description: TLR7 inhibition reporter assay (HEK-Blue SEAP). Format: cell-based. As to conditions: HEK-Blue cells overexpressing human TLR7, gardiquimod 7.5 μM, 22 hour incubation. The method, boiled down: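 Cells (15000/well for TLR7, 20,000 for TLR8) were treated with compounds over 0.05 nM-50 μM final. After 22 h at 37° C, 5% CO2, SEAP was measured with HEK-Blue Detection reagent; percent inhibition was taken as reduction of agonist-plus-DMSO signal relative to a known inhibitor.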

pIC50: −log10 of the molar value.

Broadly, the pIC50 is the IC50 on a negative log10 scale, so that one unit is a factor of ten. Low values mean a high IC50, high ones a low IC50. With `Cc1cc2c(cc1-c1cc(C)c3ncnn3c1)[nH]c(=O)n2[C@H]1CC[C@@H](NC(C)C)CC1` [Example 22, 1-((1s,4s)-4-(isopropylamino)cyclohexyl)-6-methyl-5-(8-methyl-[1,2,4]triazolo[1,5-a]pyridin-6-yl)-1,3-dihydro-2H-benzo[d]imidazol-2-one], the pIC50 in experiment [1] was 5.33; in experiment [2], 8.32.

Take `Cc1cc2c(cc1-c1cc(C)c3ncnn3c1)[nH]c(=O)n2[C@H]1CC[C@@H](N(C)C)CC1` [Example 19, 1-((1s,4s)-4-(dimethylamino)cyclohexyl)-6-methyl-5-(8-methyl-[1,2,4]triazolo[1,5-a]pyridin-6-yl)-1,3-dihydro-2H-benzo[d]imidazol-2-one]: the pIC50 is 4.79 in experiment [1] and 7.67 in experiment [2].

As for `CCC(C)N1CCC[C@@H](n2c(=O)[nH]c3cc(-c4cc(C)c5ncnn5c4)c(C)cc32)C1` (stereo partly drawn) [Example 28, 1-((3R)-1-(sec-butyl)piperidin-3-yl)-6-methyl-5-(8-methyl-[1,2,4]triazolo[1,5-a]pyridin-6-yl)-1,3-dihydro-2H-benzo[d]imidazol-2-one], the figures for the pIC50 in experiment [1] and in experiment [2] were 4.97 and 7.56, respectively.

As for `COc1cc(-c2cc3[nH]c(=O)n([C@H]4CC[C@@H](N)CC4)c3cc2C)cn2ncnc12` [1 EG, 1-((1s,4s)-4-aminocyclohexyl)-5-(8-methoxy-[1,2,4]triazolo[1,5-a]pyridin-6-yl)-6-methyl-1,3-dihydro-2H-benzo[d]imidazol-2-one], the pIC50 was 5.44 in experiment [1] and 7.27 in experiment [2].

On to `COC[C@@H]1CCN(C2CCC(n3c(=O)[nH]c4cc(-c5cc(OC)c6ncnn6c5)c(C(C)C)cc43)CC2)C1` (single isomer, unassigned) [Example 290], for which the pIC50 in experiment [1] is 5.15; in experiment [2], 8.86.

`Cc1cc2c(cc1-c1cc(C)c3ncnn3c1)[nH]c(=O)n2[C@@H]1CCCN(C2COC2)C1` [Example 18, (R)-6-methyl-5-(8-methyl-[1,2,4]triazolo[1,5-a]pyridin-6-yl)-1-(1-(oxetan-3-yl)piperidin-3-yl)-1,3-dihydro-2H-benzo[d]imidazol-2-one]: the pIC50 was less than 4.30 in experiment [1] and 6.39 in experiment [2].

In the case of `COC1CN(C2CCC(n3c(=O)[nH]c4cc(-c5cn6ncnc6c(C)c5C)c(C(C)C)cc43)CC2)C1` (single isomer, unassigned) [Example 277, 5-(7,8-dimethyl-[1,2,4]triazolo[1,5-a]pyridin-6-yl)-6-isopropyl-1-(4-(3-methoxyazetidin-1-yl)cyclohexyl)-1,3-dihydro-2H-benzo[d]imidazol-2-one], the figures for the pIC50 in experiment [1] and in experiment [2] were 5.13 and 8.62, respectively.

In the case of `COc1cc(-c2cc3[nH]c(=O)n(C4CCC(N5CCC(OC)C5)CC4)c3cc2C(C)C)cn2ncnc12` (centres unmarked) [Example 284, 6-isopropyl-5-(8-methoxy-[1,2,4]triazolo[1,5-a]pyridin-6-yl)-1-(4-(3-methoxypyrrolidin-1-yl)cyclohexyl)-1,3-dihydro-2H-benzo[d]imidazol-2-one], the results for the pIC50 in experiment [1] and in experiment [2] were 5.45 and 9.15, respectively.

Take `COc1cc(-c2cc3[nH]c(=O)n(C4CCC(N5CC[C@H](F)C5)CC4)c3cc2C(C)C)cn2ncnc12` (stereo partly drawn) [Example 286, (S)-1-(4-(3-fluoropyrrolidin-1-yl)cyclohexyl)-6-isopropyl-5-(8-methoxy-[1,2,4]triazolo[1,5-a]pyridin-6-yl)-1,3-dihydro-2H-benzo[d]imidazol-2-one]: the pIC50 in experiment [1] was 5.37; in experiment [2], 9.15.

For the molecule `COc1cc(-c2cc3[nH]c(=O)n(C4CCC(N5CCSCC5)CC4)c3cc2C(C)C)cn2ncnc12` (centres unmarked) [Example 250, 6-isopropyl-5-(8-methoxy-[1,2,4]triazolo[1,5-a]pyridin-6-yl)-1-(4-thiomorpholinocyclohexyl)-1,3-dihydro-2H-benzo[d]imidazol-2-one], the pIC50 in experiment [1] is 5.14; in experiment [2] it was 8.70.

Consider `Cc1c(-c2cc3[nH]c(=O)n(C4CCC(N5CCC6(CC5)COC6)CC4)c3cc2C(C)C)cn2ncnc2c1C` (single isomer, unassigned) [Example 283, 1-(4-(2-oxa-7-azaspiro[3.5]nonan-7-yl)cyclohexyl)-5-(7,8-dimethyl-[1,2,4]triazolo[1,5-a]pyridin-6-yl)-6-isopropyl-1,3-dihydro-2H-benzo[d]imidazol-2-one], for which the negative logarithm of the IC50 (pIC50) in experiment [1] is 5.27; in experiment [2] it was 8.74.

Regarding `COc1c(C)c(-c2cc3[nH]c(=O)n(C4CCC(N5CCCOCC5)CC4)c3cc2C(C)C)cn2ncnc12` (single isomer, unassigned) [Example 262, 1-(4-(1,4-oxazepan-4-yl)cyclohexyl)-6-isopropyl-5-(8-methoxy-7-methyl-[1,2,4]triazolo[1,5-a]pyridin-6-yl)-1,3-dihydro-2H-benzo[d]imidazol-2-one], the values for the pIC50 in experiment [1] and in experiment [2] were 4.81 and 8.64, respectively.

With `Cc1cc2c(cc1-c1cc(C)c3ncnn3c1)[nH]c(=O)n2[C@H]1CC[C@@H](NCCC(F)(F)F)CC1` [Example 31], the pIC50 in experiment [1] was 5.53; in experiment [2] it was 7.95.

`Cc1cc2c(cc1-c1cc(C)c3ncnn3c1)[nH]c(=O)n2[C@@H]1CCCN(CC(C)(C)C)C1` [Example 26, (R)-6-methyl-5-(8-methyl-[1,2,4]triazolo[1,5-a]pyridin-6-yl)-1-(1-neopentylpiperidin-3-yl)-1,3-dihydro-2H-benzo[d]imidazol-2-one]: the pIC50 in experiment [1] is 5.17; in experiment [2], 6.63.

In the case of `CCN[C@H]1CC[C@H](n2c(=O)[nH]c3cc(-c4cc(C)c5ncnn5c4)c(C)cc32)CC1` [Example 24, 1-((1r,4s)-4-(ethylamino)cyclohexyl)-6-methyl-5-(8-methyl-[1,2,4]triazolo[1,5-a]pyridin-6-yl)-1,3-dihydro-2H-benzo[d]imidazol-2-one], the pIC50 was 5.80 in experiment [1] and 7.91 in experiment [2].

`CCc1cc2c(cc1-c1cc(OC)c3ncnn3c1)[nH]c(=O)n2[C@@H]1CCCNC1` [119 FB, (R)-6-ethyl-5-(8-methoxy-[1,2,4]triazolo[1,5-a]pyridin-6-yl)-1-(piperidin-3-yl)-1,3-dihydro-2H-benzo[d]imidazol-2-one]: the pIC50 in experiment [1] is 5.60; in experiment [2], 8.26.
